Assay results: US4582851A, “Anti-bacterial 1,4-aminoalkylamino-9H-thioxanthen-9-one derivatives, compositions, and method of use therefor” (Warner-Lambert Company, priority 1985, dated 1986)
Counter-ions that a name gives are not always drawn. One block for each compound: values may come before it.

How the values were obtained:
[1] = system: P-388 lymphocytic leukemia; settings: cited from earlier work
[2] = system: A. Viscolacti; experiment: Inhibitory zone diameter, agar disc assay, A. viscolacti; type: cell-based; settings: read-out: Inhibitory Zone Diameter, A. viscolacti
Method: (§1) 1. Preparation of inocula
(§2) The bacterial and yeast isolates are maintained in agar slants or in liquid media, hereby designated as inoculum media. The cultures are transferred at regular intervals in such media. (See Table for the corresponding inoculum media of each culture.) The organisms are generally transferred on to agar slants or liquid inoculum media and incubated overnight (18-20 hours): 37° C. for the bacterial isolates and 28° C. for the fungal cultures.
(§3) The microbial cells from the overnight agar slants are then scraped off and suspended in saline solution (0.85% NaCl). The microbial concentrations are adjusted to a light transmittancy of 20-35%, Junior Coleman Spectrophotometer (555M). For the organisms that are maintained in liquid media, an aliquot of the culture suspension is simply diluted with saline to 20-35% light transmittancy.
(§4) The above microbial suspension serve as inocula for the assay plates. Thus, 0.16-10 ml (see Table for exact amount) are used to inoculate 100 ml of the molten-agar assay medium.
(§5) Stainless steel frames, 12.3×25.3 cm (ID) and glass plates, 15.3×31.7 cm are used to make the test trays. The frames are attached to the plates with tape at each end and the inner edges sealed with 2% agar. Twenty five ml of inoculated assay medium is spread evenly on each tray and allowed to solidify. The trays are covered, inverted, and refrigerated until used.
(§6) The compounds or samples to be tested are dissolved in suitable solvents, e.g., alcohols, dimethylsulfoxide, or N,N-dimethylformamide. The samples are generally dissolved so that the final concentration of the solvent is <10%.* The compounds are tested at different concentrations: 3,000; 1,000; 500; 100; and 10 mcg/ml. Paper discs (12.7 mm diameter) are placed on the agar trays with forceps, then 0.08 ml of the dissolved compound is pipetted onto each disc using a 0.2 ml pipette.
(§7) The disked agar trays are incubated overnight (18-20 hours) at 37° C. for the bacterial cultures and 28° C. for the yeasts. […] The diameter of the zone is measured in mm. […]

[3] = system: lymphocytic leukemia P388; experiment: P388 in vivo lymphocytic leukemia test; parameters: species or system male or female CD2 F1 mice; settings: for P388 in vivo T/C × 100: two single doses, four-day interval; for Number of animals surviving 30 days and considered "cured": six to seven animals per group
Method: The in vivo lymphocytic leukemia P388 test is carried out by the United States National Cancer Institute. The animals used are either male or female CD2 F1 mice. There are six to seven animals per test group. The tumor transplant is by intraperitoneal injection of dilute ascitic fluid containing cells of lymphocytic leukemia P388. The test compounds are administered intraperitoneally in two single doses with a four-day interval between doses at various dose levels following tumor inoculation. The animals are weighed and survivors are recorded on a regular basis for 30 days. A ratio of survival time for treated (T)/control (C) animals is calculated. The criterion for efficacy is T/C×100>125%. The positive control compound in this test is 1,4-dihydroxy-5,8-[bis[[2-[(2-hydroxyethyl)amino]-ethyl]]amino]-9,10-anthracenedione given at dosages ranging from 12.0 to 0.075 mg/kg. See Cancer Chemotherapy Reports, Part 3, 3, 1 (1972) for a comprehensive discussion of the protocol.

[4] = system: S. Faeculic; experiment: Inhibitory zone diameter, agar disc assay, S. faecalis; type: cell-based, Streptococcus faecalis; settings: Enterococcus faecalis
Method: as §1, §2, §3, §4, §5, §6, §7

[5] = system: B. Subtilis; experiment: Inhibitory zone diameter, agar disc assay, B. subtilis; type: cell-based; settings: Bacillus subtilis; for zone of inhibition at 100 µg/mL: Conc. 100 (mg/ml)
Method: as §1, §2, §3, §4, §5, §6, §7

[6] = system: E. coli; experiment: Inhibitory zone diameter, agar disc assay, E. coli; type: cell-based, Escherichia coli
Method: as §1, §2, §3, §4, §5, §6, §7

[7] = system: N. Catarrhali; experiment: Inhibitory zone diameter, agar disc assay, N. catarrhali; type: cell-based; settings: Conc. 100 (mg/ml)
Method: as §1, §2, §3, §4, §5, §6, §7

[8] = system: L1210 cells; experiment: L1210 in vitro (murine leukemia cell growth); type: cell-based; settings: Mus musculus, L1210, 72 h; 3 days, 37° C., 5% CO2; read-out: L1210 in vitro ID50
Method: A test protocol uses L1210 cells, a murine leukemia cell line, grown in RPMI 1640 supplemented with 5% fetal bovine serum and gentamicin (50 μg/ml). Drug dilutions are prepared in the appropriate solvent and 20 μl of each dilution are added to 24-well Linbro tissue culture plates, followed by the addition of 2.0 ml of cell suspension containing 3×10^4 cells per ml. Solvent and medium controls are included in each test. After incubation at 37° C. for three days in 5% CO2, the contents of each well are removed and the cells counted in a ZBI Coulter counter. Percent growth are calculated relative to the controls and the levels of drug activity are expressed as ID50 in moles per liter.

[9] = system: HCT-8 (human colon adenocarcinoma) cells; experiment: HCT-8 in vitro (human colon adenocarcinoma); type: cell-based; settings: 60-65 hrs at 37° C., read-out: HCT-8 in vitro ID50
Method: In addition to their usefulness as antibiotic and antifungal agents and as antileukemic agents, certain of the compounds of the invention display in vitro activity against solid tumors when tested by the following procedure.
HCT-8 (human colon adenocarcinoma) cells are trypsinized using Trypsin-EDTA. A single cell suspension is achieved by passing the cells through a 26 gauge needle with a 20 cc syringe. A cell suspension is prepared using RPMI 1640 growth medium (available from Gibco Laboratories)+10% fetal calf serum+50 μg/ml garamycin with a cell concentration of approximately 30,000 cells/ml. The cell suspension is dispensed in Linbro 24-well plates; 1 ml/well. The plates are incubated for approximately 48 hrs at 37° C. in a 5% CO2 atmosphere. At this time test compounds are added in the appropriate concentration. Five μl of the 200 μg/ml stock solution is added to each well in a primary test. Ten μl of the appropriate dilution is added to each well for a titration test. The plates are reincubated an additional 60-65 hrs at 37° C. in a 5% CO2 atmosphere. The test is read by lysing the cells using a mix of cationic surfactant, glacial acetic acid and sodium chloride. Two ml of the lysed cell suspension from each well is added to 8 ml of diluent. Each sample is read with a Coulter counter (ZBI model). The activity of each sample is measured as a percentage of the controls and the data is reported as ID50, that is the molar quantity of drug required to kill 50% of the tumor cells.

[10] = system: tumor; settings: cited from earlier work
[11] = system: P388; settings: cited from earlier work
[12] = 12.5 mg/kg i.p. (printed 125 for Example 1)

SMILES: Cc1ccc(NCCNCCO)c2c(=O)c3ccccc3sc12
activity against the P-388 lymphocytic leukemia [1]: inactive

SMILES: CN(C)CCNc1ccc(NCCCN)c2sc3ccccc3c(=O)c12.Cl.Cl.Cl [Example 3, 4-[(3-Aminopropyl)amino]-1-[[2-(dimethylamino)ethyl]amino]-9H-thioxanthen-9-one, trihydrochloride]
zone of inhibition at 100000 µg/mL [2]: 14 mm | P388 in vivo T/C × 100 ([3]; 25 mg/kg i.p.): 125% | zone of inhibition at 3000 µg/mL ([4]; Conc. 3000 (mg/ml)): 18 mm | zone of inhibition at 1000 µg/mL ([5]; Conc. 1000 (mg/ml)): 16 mm | Inhibitory Zone Diameter, E. coli ([6]; concentration not given): 0 mm | zone of inhibition at 100 µg/mL [7]: 24 mm

SMILES: CN(C)CCNc1ccc(NCCNCCO)c2sc3ccccc3c(=O)c12.Cl.Cl.Cl [Example 1, 1-[[2-(Dimethylamino)ethyl]amino]-4-[[2-[(2-hydroxyethyl)amino]ethyl]amino]-9H-thioxanthen-9-one trihydrochloride]
zone of inhibition at 100000 µg/mL [2]: 17 mm | P388 in vivo T/C × 100 [3, 12]: 190% | P388 in vivo T/C × 100 ([3]; 25 mg/kg i.p.): 236% | Number of animals surviving 30 days and considered "cured" ([3]; 25 mg/kg i.p.): 1 | zone of inhibition at 1600 µg/mL ([4]; Conc. 1600 (mg/ml)): 19 mm | zone of inhibition at 100 µg/mL [5]: 19 mm | zone of inhibition at 3 g/mL ([6]; Escherichia coli, read-out: Inhibitory Zone Diameter, E. coli): 17 mm | zone of inhibition at 100 µg/mL [7]: 21 mm

IC50 [8]: 120 nM | IC50 [9]: 270 nM
SMILES: CN(C)CCNc1ccc([N+](=O)[O-])c2sc3ccccc3c(=O)c12 [Example 4, 1-[[2-(dimethylamino)ethyl]amino]-4-nitro-9H-thioxanthen-9-one]

SMILES: CCN(CC)CCNc1ccc(C)c2sc3ccccc3c(=O)c12 [lucanthone]
Experimental antitumor activity [10]: Experimental antitumor activity has been reported

IC50 [8]: 6.5 nM
SMILES: CN(C)CCNc1ccc([N+](=O)[O-])c2sc3ccc(O)cc3c(=O)c12 [Example 5 NH(CH2)2 NMe2 7-OH, 1-[[2-(Dimethylamino)ethyl]amino]-7-hydroxy-4-nitro-9H-thioxanthen-9-one]

SMILES: CN(C)CCNc1ccc(NCCN)c2sc3ccccc3c(=O)c12 [Example 2, 4-[(2-Aminoethyl)amino]-1-[[2-(dimethylamino)ethyl]amino]-9H-thioxanthen-9-one, hydrochloride]
zone of inhibition at 100000 µg/mL [2]: 23 mm | P388 in vivo T/C × 100 [3, 12]: 187% | P388 in vivo T/C × 100 ([3]; 25 mg/kg i.p.): 212% | Number of animals surviving 30 days and considered "cured" ([3]; 25 mg/kg i.p.): 1 | zone of inhibition at 500 µg/mL ([4]; Conc. 500 (mg/ml)): 14 mm | zone of inhibition at 100 µg/mL [5]: 16 mm | zone of inhibition at 1000 µg/mL ([6]; Escherichia coli, Conc. 1000 (mg/ml)): 14 mm | zone of inhibition at 100 µg/mL [7]: 20 mm

SMILES: Cc1ccc(NCCN(C)C)c2c(=O)c3ccccc3sc12
activity against the P-388 lymphocytic leukemia [1]: inactive

SMILES: CCN(CC)CCNc1ccc(N)c2sc3ccccc3c(=O)c12 [Example 1c]
activity against the P-388 lymphocytic leukemia [1]: inactive

IC50 [8]: 96 nM | IC50 [9]: 460 nM
SMILES: CN(C)CCCNc1ccc([N+](=O)[O-])c2sc3ccccc3c(=O)c12 [Example 5 NH(CH2)3 NMe2 H, 1-[[3-(dimethylamino)propyl]amino]-4-nitro-9H-thioxanthen-9-one]
P388 in vivo T/C × 100 ([3]; 50 mg/kg i.p.): 190%

IC50 [8]: 250 nM | IC50 [9]: 1000 nM
SMILES: COc1ccc2sc3c([N+](=O)[O-])ccc(NCCN(C)C)c3c(=O)c2c1 [Example 5 NH(CH2)2 NMe2 7-OMe, 1-[[2-(Dimethylamino)ethyl]amino]-7-methoxy-4-nitro-9H-thioxanthen-9-one]
P388 in vivo T/C × 100 ([3]; 100 mg/kg i.p.): 178%

IC50 [8]: 1200 nM | IC50 [9]: 1100 nM
SMILES: CCN(CC)CCNc1ccc([N+](=O)[O-])c2sc3cc(OC)ccc3c(=O)c12 [Example 5 NH(CH2)2 NEt2 6-OMe]
P388 in vivo T/C × 100 ([3]; 100 mg/kg i.p.): 104%

SMILES: CCN(CC)CCNc1ccc(CO)c2sc3ccccc3c(=O)c12 [hycanthone]
Experimental antitumor activity [10]: Experimental antitumor activity has been reported

SMILES: CCN(CC)CCNc1ccc(C)c2sc3ccc(O)cc3c(=O)c12 [7-hydroxy analog of lucanthone]
in vivo P388 activity [11]: shown to have in vivo P388 activity
